Data published in patent US12077503B2, “Substituted cyclic amides and their use as herbicides” (FMC CORPORATION, priority 2015, dated 2024).

What was measured:
Type in all cases: in vivo
[1] = test system: sedge, umbrella (small-flower umbrella sedge, Cyperus difformis); assay: Test B flooded paddy test; conditions: Cyperus difformis, Flood, 250 g ai/ha; scale of 0 to 100 where 0 is no effect and 100 is complete control; read-out: Sedge, Umbrella plant response rating
Outline: (§1)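 Percent control, visually estimated after 13–15 d in the greenhouse on a 0–100 basis, compares treated pots with untreated ones; compound was put into paddy water 3 cm above the soil when plants had two leaves.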

[2] = test system: ducksalad (Heteranthera limosa); assay: Test B flooded paddy test; conditions: Heteranthera limosa, Flood, 250 g ai/ha; scale of 0 to 100 where 0 is no effect and 100 is complete control; read-out: Ducksalad plant response rating
Outline: as §1

rice (Oryra sativa) = assay: Test B flooded paddy test; conditions: Oryza sativa, Flood, 250 g ai/ha; scale of 0 to 100 where 0 is no effect and 100 is complete control; read-out: Rice plant response rating
Outline: as §1

[3] = test system: barnyardgrass (Echinochloa crus-galli); assay: Test B flooded paddy test; conditions: Echinochloa crus-galli, Flood, 250 g ai/ha; scale of 0 to 100 where 0 is no effect and 100 is complete control; read-out: Barnyardgrass plant response rating
Outline: as §1

[4] = test system: pigweed (Amaranthus retroflexus); assay: Test A preemergence; conditions: Amaranthus retroflexus, pre-emergence, 240 h; for pest or weed control at 125 g/ha: 125 g ai/ha, preemergence, 0 to 100 scale where 0 is no effect and 100 is complete control, read-out: Pigweed plant response rating; for pest or weed control at 500 g/ha: 500 g ai/ha, Preemergence, visual injury vs untreated controls after approximately 10 d, read-out: Pigweed plant response rating (0 to 100 scale where 0 is no effect and 100 is complete control)
[5] = test system: blackgrass (Alopecurus myosuroides); assay: Test A postemergence; conditions: Alopecurus myosuroides, post-emergence, 240 h, 125 g ai/ha, postemergence, visual injury rating after approximately 10 d; read-out: Blackgrass plant response rating (0 to 100 scale, 0 no effect, 100 complete control)
Outline: (§2)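 Ratings of 0 (no effect) to 100 (complete control) come from visual comparison with untreated controls roughly 10 d after treatment. Test chemicals, formulated in a non-phytotoxic solvent mixture with surfactant, were applied either as a preemergence directed soil spray on seeded soil or postemergence to one- to two-leaf plants 2 to 10 cm tall.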

[6] = test system: ragweed (common ragweed, Ambrosia elatior); assay: Test A postemergence; conditions: Ambrosia artemisiifolia, post-emergence, 240 h, 125 g ai/ha, postemergence, visual injury rating after approximately 10 d; read-out: Ragweed plant response rating (0 to 100 scale, 0 no effect, 100 complete control)
Outline: as §2

[7] = test system: giant foxtail (Setaria faberii); assay: Test A postemergence; conditions: Setaria faberi, post-emergence, 240 h, 125 g ai/ha, postemergence, visual injury rating after approximately 10 d; read-out: Foxtail, Giant plant response rating (0 to 100 scale, 0 no effect, 100 complete control)
Outline: as §2

Kochia (Kochia scoparia) = assay: Test A postemergence; conditions: Bassia scoparia, post-emergence, 240 h, 125 g ai/ha, postemergence, visual injury rating after approximately 10 d; read-out: Kochia plant response rating (0 to 100 scale, 0 no effect, 100 complete control)
Outline: as §2

[8] = test system: pigweed (Amaranthus retroflexus); assay: Test A postemergence; conditions: Amaranthus retroflexus, post-emergence, 240 h, 125 g ai/ha, postemergence, visual injury rating after approximately 10 d; read-out: Pigweed plant response rating (0 to 100 scale, 0 no effect, 100 complete control)
Outline: as §2

[9] = test system: wheat (Triticum aestivum); assay: Test A postemergence; conditions: Triticum aestivum, post-emergence, 240 h, 125 g ai/ha, postemergence, visual injury rating after approximately 10 d; read-out: Wheat plant response rating (0 to 100 scale, 0 no effect, 100 complete control)
Outline: as §2

[10] = test system: Galium (catchweed bedstraw, Galium aparine); assay: Test A postemergence; conditions: Galium, post-emergence, 240 h, 125 g ai/ha, postemergence, visual injury rating after approximately 10 d; read-out: Galium plant response rating (0 to 100 scale, 0 no effect, 100 complete control)
Outline: as §2

corn (Zea mays) = assay: Test A postemergence; conditions: Zea mays, post-emergence, 240 h, 125 g ai/ha, postemergence, visual injury rating after approximately 10 d; read-out: Corn plant response rating (0 to 100 scale, 0 no effect, 100 complete control)
Outline: as §2

[11] = test system: ryegrass, Italian (Italian ryegrass, Lolium multiflorum); assay: Test A postemergence; conditions: Lolium multiflorum, post-emergence, 240 h, 125 g ai/ha, postemergence, visual injury rating after approximately 10 d; read-out: Ryegrass, Italian plant response rating (0 to 100 scale, 0 no effect, 100 complete control)
Outline: as §2

[12] = test system: barnyardgrass (Echinochloa crus-galli); assay: Test A postemergence; conditions: Echinochloa crus-galli, post-emergence, 240 h, 125 g ai/ha, postemergence, visual injury rating after approximately 10 d; read-out: Barnyardgrass plant response rating (0 to 100 scale, 0 no effect, 100 complete control)
Outline: as §2

CSc1ccccc1NC(=O)[C@H]1C(=O)N(C)C[C@@H]1c1cccc(OC(F)(F)C(F)F)c1 [Compound 862]
pest or weed control at 250 g/ha [1]: 0% | pest or weed control at 250 g/ha [2]: 90% | pest or weed control at 250 g/ha (rice (Oryra sativa)): 0% | pest or weed control at 250 g/ha [3]: 0% | pest or weed control at 125 g/ha [4]: 80% | pest or weed control at 500 g/ha [4]: 90% | pest or weed control at 125 g/ha [5]: 0% | pest or weed control at 125 g/ha [6]: 0% | pest or weed control at 125 g/ha [7]: 60% | pest or weed control at 125 g/ha (Kochia (Kochia scoparia)): 40% | pest or weed control at 125 g/ha [8]: 60% | plant injury at 125 g/ha [9]: 0% | pest or weed control at 125 g/ha [10]: 60% | plant injury at 125 g/ha (corn (Zea mays)): 20% | pest or weed control at 125 g/ha [11]: 20% | pest or weed control at 125 g/ha [12]: 30%

Cc1c(F)ccc([C@H]2CN(C)C(=O)[C@@H]2C(=O)Nc2ccc(F)c(F)c2F)c1F [Compound 836]
pest or weed control at 250 g/ha [1]: 0% | pest or weed control at 250 g/ha [2]: 95% | pest or weed control at 250 g/ha (rice (Oryra sativa)): 0% | pest or weed control at 250 g/ha [3]: 65% | pest or weed control at 125 g/ha [4]: 30% | pest or weed control at 500 g/ha [4]: 60% | pest or weed control at 125 g/ha [5]: 70% | pest or weed control at 125 g/ha [6]: 0% | pest or weed control at 125 g/ha [7]: 90% | pest or weed control at 125 g/ha (Kochia (Kochia scoparia)): 50% | pest or weed control at 125 g/ha [8]: 30% | plant injury at 125 g/ha [9]: 40% | pest or weed control at 125 g/ha [10]: 50% | plant injury at 125 g/ha (corn (Zea mays)): 70% | pest or weed control at 125 g/ha [11]: 60% | pest or weed control at 125 g/ha [12]: 100%

O=C1NC[C@H](c2ccc3c(c2)CCCO3)[C@H]1C(=O)Nc1ccccc1F [Compound 885]
pest or weed control at 250 g/ha [1]: 0% | pest or weed control at 250 g/ha [2]: 60% | pest or weed control at 250 g/ha (rice (Oryra sativa)): 0% | pest or weed control at 250 g/ha [3]: 0% | pest or weed control at 125 g/ha [4]: 0% | pest or weed control at 500 g/ha [4]: 0% | pest or weed control at 125 g/ha [5]: 0% | pest or weed control at 125 g/ha [6]: 0% | pest or weed control at 125 g/ha [7]: 40% | pest or weed control at 125 g/ha (Kochia (Kochia scoparia)): 0% | pest or weed control at 125 g/ha [8]: 0% | plant injury at 125 g/ha [9]: 0% | pest or weed control at 125 g/ha [10]: 20% | plant injury at 125 g/ha (corn (Zea mays)): 0% | pest or weed control at 125 g/ha [11]: 0% | pest or weed control at 125 g/ha [12]: 70%

Cc1c(F)ccc([C@H]2CN(C)C(=O)[C@@H]2C(=O)Nc2ccccc2C(F)(F)F)c1F [Compound 841]
pest or weed control at 250 g/ha [1]: 0% | pest or weed control at 250 g/ha [2]: 80% | pest or weed control at 250 g/ha (rice (Oryra sativa)): 0% | pest or weed control at 250 g/ha [3]: 40% | pest or weed control at 125 g/ha [4]: 0% | pest or weed control at 500 g/ha [4]: 30% | pest or weed control at 125 g/ha [5]: 30% | pest or weed control at 125 g/ha [6]: 0% | pest or weed control at 125 g/ha [7]: 90% | pest or weed control at 125 g/ha (Kochia (Kochia scoparia)): 30% | pest or weed control at 125 g/ha [8]: 0% | plant injury at 125 g/ha [9]: 0% | pest or weed control at 125 g/ha [10]: 40% | plant injury at 125 g/ha (corn (Zea mays)): 0% | pest or weed control at 125 g/ha [11]: 20% | pest or weed control at 125 g/ha [12]: 80%
